Assay results: patent US11672798B2, “Ciprofloxacin ophthalmic topical composition for treating ocular disease” (LABORATORIOS SALVAT, S.A., priority 2021, dated 2023)

Key:
[1] = topical ocular administration, background statement; cited from earlier work
[2] = tested on: SIRC (Statens Serum Institut Rabbit Cornea, ATCC CCL-60) cells
Protocol: Permeability assays were performed in triplicate and repeated at least in three independent assays on different days. For this purpose, SIRC (Statens Serum Institut Rabbit Cornea, ATCC® CCL-60™) cells were seeded in sterile 6-well microfilter plates and maintained in culture until confluence. SIRC cells were cultured in Eagle's Minimum Essential Medium (EMEM) supplemented with 10% foetal bovine serum (FBS) and with 1% of penicillin-streptomycin solution at 37° C. and 10% CO2 in air. Ciprofloxacin was dissolved in dimethyl sulfoxide (DMSO) to prepare a concentrated stock solution which was further diluted in culture medium to obtain a final concentration of 20 μg/ml.
The cells were treated with ciprofloxacin alone or in combination with the different concentrations of each corticosteroid for 15 minutes. After the incubation period, the culture medium was removed, and the cells were harvested by trypsinization and centrifuged at 980 g for 5 min at 4° C. The cellular pellet was washed with saline solution to remove possible traces of residual extracellular compounds, centrifuged, and preserved at −80° C. for further analysis.
Intracellular ciprofloxacin was quantified by ultra-high-performance liquid chromatography coupled to tandem mass spectrometry (UHPLC-MS/MS). […] Transition monitored for ciprofloxacin was m/z 332.2→288.2, with cone voltage 35 V and collision energy 20 eV.

Structure (SMILES)	fraction of topically instilled drug absorbed into the ocular tissue [1]	dose dependence of the penetration enhancing effect on ciprofloxacin [2]
O=C(O)c1cn(C2CC2)c2cc(N3CCNCC3)c(F)cc2c1=O [ciprofloxacin, Ciprofloxacin]	around 1%	
CC1(C)O[C@@H]2C[C@H]3[C@@H]4C[C@H](F)C5=CC(=O)C=C[C@]5(C)[C@@]4(F)[C@@H](O)C[C@]3(C)[C@]2(C(=O)CO)O1 [fluocinolone acetonide, Fluocinolone acetonide]		dose-dependent
